A value given as a limit tells only on which side of the number the result lay.

One may read the IC50 as the concentration needed to halve the response being measured.

For assay [1], the system named is HiBit-tagged HTT in K562 cells. Briefly: HiBiT protein abundance assay, HTT. In kind it is cell-based, human. As to conditions: HiBiT-modified K562 cells, 24 hours, luminescence. How it is done: (§1) Compounds described herein were used to screen for effects on quantitative protein abundance using a HiBit assay system (Promega). Quantitative protein abundance was determined by measuring the protein levels of HiBit-tagged protein targets expressed in cell culture via luminescence using the Nano-Glo HiBiT Lytic Detection System, which uses a split complementation assay format to reconstitute NanoBiT enzyme to generate a luminescent signal. A protein abundance assay was developed such that endogenous protein targets could be modified with the HiBiT peptide tag and their abundance could be assessed after compound treatment. Briefly, K562 cell lines containing a HiBiT-modification were treated with various compounds described herein (e.g., compounds of Formulas (I)). After treatment for 24 hours, the protein abundance of a specific target was determined by measuring luminescence.
(§2) Cells were maintained in IMDM with 10% FBS. Before the assay, cells were diluted with […] growth media (IMDM+[…] media) and were seeded in a 384-well plate at a density of 10000 cells/well (for each cell line listed in Table 8). Each compound was prepared as a 10-point 3-fold serial dilution in DMSO with the top dose at a final concentration of 10 μM in the well. Unmodified K562 cells were added at the previously specified density with DMSO to serve as an assay baseline and positive control (PC) and DMSO only with the respective modified cell lines was added to the negative control (NC) columns. Final DMSO concentration was kept at or below 0.25% o. Treated cell plates were placed in an incubator at 37° C. with […] for 24 hours. After 24 hours, 25 μL of Complete HiBit Lytic reagent was added to each well at room temperature (e.g. one plate requiring 10 mL Lytic Buffer, 100 μL LgBiT Protein, 200 μL Lytic Substrate), shaken for 5 minutes at 600 RPM, then left to sit for 10 minutes for signal to stabilize before reading on a Spark Cyto plate reader (Tecan) with a 500 ms measurement time.
(§3) To determine compound effects on protein abundance of each target in Table 9, the percent response for each respective cell line was calculated at each compound concentration as follows:
(§4) For the normalized response at each concentration, a four-parameter logistical regression was fit to the data and the response was interpolated at the […] to determine a concentration for protein abundance at 50% o (IC50) the untreated control.

Assay [2] deals with HiBit-tagged Target C in K562 cells. Briefly: HiBiT protein abundance assay, Target C. Format: cell-based, human. As to conditions: HiBiT-modified K562 cells, 24 hours, luminescence. How it is done:
as §1, §2, §3, §4
(In general: The HiBiT peptide binds its large partner to form an active luciferase.)

For the next assay, the system named is SMN2. The assay can be described thus: Gene panel canonical junction qPCR assay, SMN2 CJ mRNA (Table 7). To be noted: Homo sapiens, read-out: SMN2 CJ mRNA decrease IC50. In kind it is cell-based. The procedure, abridged:
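A673 or K562 cells were treated with compound; lysates went through cDNA synthesis and RT-qPCR, with a probe or primer spanning the canonical exon–exon junction. ΔCt vs housekeeper (GAPDH, GUSB or PPIA), normalized to DMSO (2^(−ΔΔCt)), converted to percentage response; IC50 from 4-parameter logistic fit of CJ decrease.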
(In general: Real-time PCR tracks product formation cycle by cycle.)

Consider `C[C@@H]1C[C@H](N(C)c2ccc3c(c2)OCc2cc(-c4cn[nH]c4)ccc2-3)CCN1` [Compound 101], for which the IC50 in assay [1] and in assay [2] was 1000 to 10000 nM each time.

Take `C[C@H]1C[C@H](N(C)c2ccc3c(c2)OCc2cc(-c4cn[nH]c4)ccc2-3)CCN1` [Compound 102]: the IC50 in assay [1] and in assay [2] was 1000 to 10000 nM throughout.

As to `CN(c1ccc2c(c1)OCc1cc(-c3cn[nH]c3)ccc1-2)[C@@H]1C[C@H]2CC[C@@H](C1)N2` [Compound 104], the IC50 in assay [1] and in assay [2] was 1000 to 10000 nM each time.

For `CN(c1ccc2c(c1)OCc1cc(-n3cccn3)ccc1-2)[C@@H]1C[C@H]2CC[C@@H](C1)N2` [Compound 105], the values for the IC50 (in assay [1]; with SMN2; in assay [2]) were 1000 to 10000 nM, over 10000 nM and 1000 to 10000 nM, respectively.

In the case of `CN(c1ccc2c(n1)OCc1cc(-c3cn[nH]c3)ccc1-2)[C@@H]1C[C@H]2CC[C@@H](C1)N2` [Compound 108], the IC50 (in assay [1]; in the assay with SMN2; in assay [2]) was under 100 nM throughout.

`CN(c1ccc2c(c1)CCOc1cc(-n3cccn3)ccc1-2)[C@@H]1C[C@H]2CC[C@@H](C1)N2` [Compound 113]: the IC50 (in assay [1]; in the assay with SMN2; in assay [2]) was over 10000 nM each time.

`CN(c1ccc2c(n1)OCc1cc(-c3cn[nH]c3)ccc1-2)C1CCNCC1` [Compound 116]: the IC50 is 100 to 1000 nM in assay [1], 100 to 1000 nM in the assay with SMN2 and 1000 to 10000 nM in assay [2].

With `CN(c1ccc2c(c1)COc1cc(-n3cccn3)ccc1-2)C1CC(C)(C)NC(C)(C)C1` [Compound 117], the values for the IC50 (in assay [1]; in the assay on SMN2; in assay [2]) were 1000 to 10000 nM, over 10000 nM and 1000 to 10000 nM, respectively.

Take `CC1(C)CC(Nc2ccc3c(c2)COc2cc(-n4cccn4)ccc2-3)CC(C)(C)N1` [Compound 118]: the IC50 is 1000 to 10000 nM in assay [1], over 10000 nM in the assay with SMN2 and 1000 to 10000 nM in assay [2].

As to `CN(c1ccc2c(n1)COc1cc(-c3cn[nH]c3)ccc1-2)[C@@H]1C[C@H]2CC[C@@H](C1)N2` [Compound 121], the IC50 in assay [1] was under 100 nM; in the assay on SMN2, 100 to 1000 nM; in assay [2] it was 100 to 1000 nM.

In the case of `CN(c1ccc2c(n1)COc1cc(-n3cccn3)ccc1-2)[C@@H]1C[C@H]2CC[C@@H](C1)N2` [Compound 124], the IC50 (in assay [1]; in the assay with SMN2; in assay [2]) was 1000 to 10000 nM throughout.

`CN(c1ccc2c(n1)COc1cc(-n3cccn3)ccc1-2)C1CC(C)(C)NC(C)(C)C1` [Compound 125]: the figures for the IC50 (in assay [1]; in the assay with SMN2; in assay [2]) were 1000 to 10000 nM, over 10000 nM and 1000 to 10000 nM, respectively.

Turning to `CN(c1ccc2c(n1)CCOc1cc(-n3cccn3)ccc1-2)C1CC(C)(C)NC(C)(C)C1` [Compound 129], the IC50 (in assay [1]; in the assay with SMN2; in assay [2]) was over 10000 nM throughout.

In the case of `CC1(C)CC(Nc2ccc3c(n2)COc2cc(-n4cccn4)ccc2-3)CC(C)(C)N1` [Compound 134], the IC50 (in assay [1]; in the assay on SMN2; in assay [2]) was 1000 to 10000 nM in each case.

On to `CN(c1cnc2c(n1)OCc1cc(-c3cn[nH]c3)ccc1-2)C1CC(C)(C)NC(C)(C)C1` [Compound 142], for which the IC50 is 100 to 1000 nM in assay [1], 100 to 1000 nM in the assay on SMN2 and 1000 to 10000 nM in assay [2].

Regarding `c1cc2c(cc1-c1cn[nH]c1)COc1nc(N[C@@H]3C[C@H]4CC[C@@H](C3)N4)cnc1-2` [Compound 143], the IC50 (in assay [1]; with SMN2; in assay [2]) was 100 to 1000 nM each time.

Regarding `CN(c1cnc2c(n1)OCc1cc(-c3cn[nH]c3)ccc1-2)[C@@H]1C[C@H]2CC[C@@H](C1)N2` [Compound 144], the results for the IC50 (in assay [1]; in the assay with SMN2; in assay [2]) were under 100 nM, over 10000 nM and under 100 nM, respectively.

Consider `CN(c1ccc2c(n1)OCCc1cc(-c3cn[nH]c3)ccc1-2)C1CC(C)(C)NC(C)(C)C1` [Compound 145], for which the IC50 (in assay [1]; in the assay with SMN2; in assay [2]) was 1000 to 10000 nM in each case.

On to `CN(c1ccc2c(n1)OCCc1cc(-c3cn[nH]c3)ccc1-2)[C@@H]1C[C@H]2CC[C@@H](C1)N2` [Compound 146], for which the IC50 is 1000 to 10000 nM in assay [1], over 10000 nM with SMN2 and 1000 to 10000 nM in assay [2].

Take `CN(c1ccc2c(n1)OCc1cc(-c3cn[nH]c3)ccc1-2)C1CC(C)(C)NC(C)(C)C1` [Compound 147]: the IC50 in assay [1] is 100 to 1000 nM; in the assay with SMN2, over 10000 nM; in assay [2], 100 to 1000 nM.

For `CN(c1ccc2c(n1)OCc1cc(-n3cccn3)ccc1-2)C1CC(C)(C)NC(C)(C)C1` [Compound 148], the IC50 lay in the range of 1000 to 10000 nM in assay [1], 100 to 1000 nM in the assay with SMN2 and 1000 to 10000 nM in assay [2].

Take `CN(c1ccc2c(n1)OCc1cc(-n3cccn3)ccc1-2)[C@@H]1C[C@H]2CC[C@@H](C1)N2` [Compound 149]: the IC50 (in assay [1]; with SMN2; in assay [2]) was 100 to 1000 nM throughout.

On to `CN(c1ccc2c(n1)OCc1cc(-n3nccn3)ccc1-2)[C@@H]1C[C@H]2CC[C@@H](C1)N2` [Compound 151], for which the IC50 (in assay [1]; in the assay with SMN2; in assay [2]) was under 100 nM throughout.

As for `CN(c1ccc2c(n1)OCc1cc(-n3ccnn3)ccc1-2)[C@@H]1C[C@H]2CC[C@@H](C1)N2` [Compound 152], the figures for the half-inhibitory concentration (IC50) (in assay [1]; with SMN2; in assay [2]) were under 100 nM, under 100 nM and 100 to 1000 nM, respectively.

On to `CN(c1ccc2c(n1)OCc1cc(-c3ccn(C)c(=O)c3)ccc1-2)[C@@H]1C[C@H]2CC[C@@H](C1)N2` [Compound 153], for which the IC50 (in assay [1]; with SMN2; in assay [2]) was under 100 nM each time.

Turning to `Cc1[nH]ncc1-c1ccc2c(c1)COc1nc(N(C)[C@@H]3C[C@H]4CC[C@@H](C3)N4)ccc1-2` [Compound 154], the IC50 in assay [1] was under 100 nM; with SMN2, 100 to 1000 nM; in assay [2], 100 to 1000 nM.

`Cc1ncc(-c2ccc3c(c2)COc2nc(N(C)[C@@H]4C[C@H]5CC[C@@H](C4)N5)ccc2-3)o1` [Compound 155]: the IC50 (in assay [1]; in the assay with SMN2; in assay [2]) was under 100 nM each time.

In the case of `COc1cc(-c2ccc3c(c2)COc2nc(N(C)[C@@H]4C[C@H]5CC[C@@H](C4)N5)ccc2-3)ccn1` [Compound 156], the IC50 in assay [1] is under 100 nM; in the assay with SMN2, 100 to 1000 nM; in assay [2] it was 100 to 1000 nM.

As for `CN(c1ccc2c(n1)OCc1cc(-c3ccc(=O)[nH]c3)ccc1-2)[C@@H]1C[C@H]2CC[C@@H](C1)N2` [Compound 157], the IC50 in assay [1] lay within 100 to 1000 nM; in the assay with SMN2, 100 to 1000 nM; in assay [2] it was 1000 to 10000 nM.

For the compound `CN(c1ccc2c(n1)OCc1cc(-c3ccc(=O)n(C)c3)ccc1-2)[C@@H]1C[C@H]2CC[C@@H](C1)N2` [Compound 158], the IC50 is under 100 nM in assay [1], 100 to 1000 nM in the assay with SMN2 and 1000 to 10000 nM in assay [2].

As to `COc1cc(-c2ccc3c(c2)COc2nc(N(C)[C@@H]4C[C@H]5CC[C@@H](C4)N5)ccc2-3)cnn1` [Compound 159], the IC50 (in assay [1]; in the assay on SMN2; in assay [2]) was under 100 nM in each case.

As for `CN(c1ccc2c(n1)OCc1cc(-c3cnn(C)c(=O)c3)ccc1-2)[C@@H]1C[C@H]2CC[C@@H](C1)N2` [Compound 160], the IC50 (in assay [1]; with SMN2; in assay [2]) was under 100 nM throughout.

As for `CN(c1ccc2c(n1)OCc1cc(-c3cnc(=O)[nH]c3)ccc1-2)[C@@H]1C[C@H]2CC[C@@H](C1)N2` [Compound 161], the IC50 (in assay [1]; in the assay on SMN2; in assay [2]) was over 10000 nM throughout.

For the compound `CN(c1ccc2c(n1)OCc1cc(-c3cc(=O)n(C)cn3)ccc1-2)[C@@H]1C[C@H]2CC[C@@H](C1)N2` [Compound 162], the IC50 (in assay [1]; with SMN2; in assay [2]) was under 100 nM throughout.

Take `CN(c1ccc2c(n1)OCc1cc(-n3ccnc3)ccc1-2)[C@@H]1C[C@H]2CC[C@@H](C1)N2` [Compound 163]: the IC50 (in assay [1]; in the assay on SMN2; in assay [2]) was under 100 nM in each case.

As for `Cc1cn(-c2ccc3c(c2)COc2nc(N(C)[C@@H]4C[C@H]5CC[C@@H](C4)N5)ccc2-3)cn1` [Compound 164], the IC50 (in assay [1]; in the assay with SMN2; in assay [2]) was under 100 nM in each case.

Source of the values: patent US20240400584A1, “COMPOUNDS AND METHODS FOR MODULATING SPLICING” (REMIX THERAPEUTICS INC., priority 2021, published 2024).
